{"source": "ChEMBL document CHEMBL4602676", "about": "“Discovery and Development of 3-(6-Chloropyridine-3-yloxymethyl)-2-azabicyclo[3.1.0]hexane Hydrochloride (SUVN-911): A Novel, Potent, Selective, and Orally Active Neuronal Nicotinic Acetylcholine α4β2 Receptor Antagonist for the Treatment of Depression” (J Med Chem, 2020)", "data": [{"biological_target": "Neuronal acetylcholine receptor; alpha4/beta2 (Homo sapiens, UniProt P17787+P43681)", "sequence (P17787 whole entry)": "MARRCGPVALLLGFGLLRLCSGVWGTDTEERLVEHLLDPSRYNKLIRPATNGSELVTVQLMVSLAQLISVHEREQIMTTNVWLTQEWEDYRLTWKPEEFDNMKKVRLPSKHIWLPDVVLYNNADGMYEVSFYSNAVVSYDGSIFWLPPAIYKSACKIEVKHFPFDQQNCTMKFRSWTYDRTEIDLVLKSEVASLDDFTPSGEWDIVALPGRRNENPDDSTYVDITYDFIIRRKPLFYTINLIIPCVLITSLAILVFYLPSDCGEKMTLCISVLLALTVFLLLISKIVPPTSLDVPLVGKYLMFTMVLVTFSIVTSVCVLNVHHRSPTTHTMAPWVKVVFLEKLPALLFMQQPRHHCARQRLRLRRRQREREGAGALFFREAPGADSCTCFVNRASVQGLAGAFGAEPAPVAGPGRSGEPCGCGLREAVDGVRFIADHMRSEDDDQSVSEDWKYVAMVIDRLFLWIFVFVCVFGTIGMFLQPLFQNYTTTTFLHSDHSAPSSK", "sequence (P43681 whole entry)": "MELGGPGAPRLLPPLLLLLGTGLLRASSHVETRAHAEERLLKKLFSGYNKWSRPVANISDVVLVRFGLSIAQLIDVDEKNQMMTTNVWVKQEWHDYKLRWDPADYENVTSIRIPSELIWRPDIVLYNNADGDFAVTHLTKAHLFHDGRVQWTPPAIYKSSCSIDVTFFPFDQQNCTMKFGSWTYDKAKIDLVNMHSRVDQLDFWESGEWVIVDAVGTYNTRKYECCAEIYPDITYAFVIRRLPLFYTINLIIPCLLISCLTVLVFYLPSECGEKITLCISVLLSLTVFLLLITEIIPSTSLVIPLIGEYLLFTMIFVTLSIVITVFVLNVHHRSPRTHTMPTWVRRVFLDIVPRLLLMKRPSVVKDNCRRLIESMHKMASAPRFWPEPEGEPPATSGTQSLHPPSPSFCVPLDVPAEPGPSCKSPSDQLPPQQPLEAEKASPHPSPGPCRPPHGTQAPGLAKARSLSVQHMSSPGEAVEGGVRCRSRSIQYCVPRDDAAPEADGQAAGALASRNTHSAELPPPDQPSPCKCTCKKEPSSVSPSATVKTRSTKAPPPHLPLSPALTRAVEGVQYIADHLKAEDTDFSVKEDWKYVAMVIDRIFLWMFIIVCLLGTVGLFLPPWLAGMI", "assay": "Displacement of [3H]cytisine from human alpha4beta2 nAChR expressed in CHOK1 cell membrane by microbeta scintillation counting method", "assay_type": "cell membranes, CHO-K1", "units": {"Ki": "nM"}, "values": [{"smiles": "CN1[C@H](COc2ccc(Cl)nc2)C[C@H]2C[C@H]21", "Ki": 3.4}, {"smiles": "c1cncc(OC[C@]23C[C@H]2CCN3)c1", "Ki": 242}, {"smiles": "Cc1ccc(OC[C@@H]2C[C@H]3C[C@H]3N2)cn1", "Ki": 26.2}, {"smiles": "Clc1cc(OC[C@@H]2C[C@H]3C[C@H]3N2)cnc1Cl", "Ki": 149}, {"smiles": "FC(F)(F)c1ccc(OC[C@@H]2C[C@H]3C[C@H]3N2)cn1", "Ki": 768}, {"smiles": "Fc1ccc(OC[C@@H]2C[C@@H]3C[C@@H]3N2)cn1", "Ki": 1.2}, {"smiles": "C[C@@]12C[C@@H]1CC(COc1cccnc1Cl)N2", "note": "(stereo not given in full)", "Ki": "> 10000"}, {"smiles": "COc1ccc(OC[C@@H]2C[C@@H]3C[C@@H]3N2)cn1", "Ki": 4.7}, {"smiles": "CN1[C@H](COc2cncc(Br)c2)C[C@H]2C[C@H]21", "Ki": 4.2}, {"smiles": "Clc1ncccc1OC[C@@H]1CC[C@H]2C[C@H]2N1", "Ki": "> 10000"}, {"smiles": "c1cnc(OC[C@@H]2C[C@H]3C[C@H]3N2)cn1", "Ki": "> 10000"}, {"smiles": "c1ccc(OC[C@@H]2C[C@H]3C[C@H]3N2)nc1", "Ki": "> 10000"}, {"smiles": "Clc1ccc(OCC[C@@H]2C[C@H]3C[C@H]3N2)cn1", "Ki": 327}, {"smiles": "Brc1cncc(OC[C@@H]2C[C@@H]3C[C@@H]3N2)c1", "Ki": 2.9}, {"smiles": "Clc1ncccc1OC[C@@H]1C[C@@H]2C[C@@H]2N1", "Ki": 1}, {"smiles": "Cc1ccc(OC[C@@H]2C[C@@H]3C[C@@H]3N2)cn1", "Ki": 1.38}, {"smiles": "CN1[C@H](COc2cncc(Cl)c2)C[C@H]2C[C@H]21", "Ki": 0.37}, {"smiles": "COc1ccc(OC[C@@H]2C[C@H]3C[C@H]3N2)cn1", "Ki": "> 10000"}, {"smiles": "CN1[C@H](COc2cccnc2)C[C@H]2C[C@H]21", "Ki": 5.5}, {"smiles": "Clc1cncc(OC[C@@H]2C[C@@H]3C[C@@H]3N2)c1", "Ki": 327}, {"smiles": "C[C@@]12C[C@@H]1CC(COc1cccnc1)N2", "note": "(stereo not given in full)", "Ki": 3.6}, {"smiles": "Cc1ncccc1OC[C@@H]1C[C@H]2C[C@H]2N1C", "Ki": 231}, {"smiles": "OCCCCC#Cc1cncc(OC[C@@H]2C[C@H]3C[C@H]3N2)c1", "Ki": 2.7}, {"smiles": "Brc1ccc(OC[C@@H]2C[C@H]3C[C@H]3N2)cn1", "Ki": 46.5}, {"smiles": "Cc1ccc(OC[C@@H]2C[C@H]3C[C@H]3N2C)cn1", "Ki": 20}, {"smiles": "C=Cc1nnc(-c2cncc(OC[C@@H]3C[C@H]4C[C@H]4N3)c2)o1", "Ki": 2660}, {"smiles": "c1cc(OC[C@@H]2C[C@H]3C[C@H]3N2)ccn1", "Ki": "> 10000"}, {"smiles": "Fc1ncccc1OC[C@@H]1C[C@H]2C[C@H]2N1", "Ki": 17.4}, {"smiles": "c1ccc2ncc(OC[C@@H]3C[C@H]4C[C@H]4N3)cc2c1", "Ki": 600}, {"smiles": "Clc1cncc(OC[C@@H]2CC[C@H]3C[C@H]3N2)c1", "Ki": 31.3}, {"smiles": "Clc1ccc(OC[C@@H]2C[C@H]3C[C@H]3N2)nn1", "Ki": 4740}, {"smiles": "CN1[C@H](COc2cccnc2F)C[C@H]2C[C@H]21", "Ki": 31.9}, {"smiles": "Clc1ccc(OC[C@]23C[C@H]2CCN3)cn1", "Ki": 341}, {"smiles": "Clc1cncc(OC[C@]23C[C@H]2CCN3)c1", "Ki": 827}, {"smiles": "c1nnc(-c2cncc(OC[C@@H]3C[C@H]4C[C@H]4N3)c2)o1", "Ki": 131}, {"smiles": "Clc1ccc(OC[C@H]2NC[C@@H]3C[C@@H]32)cn1", "Ki": 0.2}, {"smiles": "CN1[C@H](COc2cccnc2Cl)C[C@H]2C[C@H]21", "Ki": 28.1}, {"smiles": "Brc1cncc(OC[C@@H]2C[C@H]3C[C@H]3N2)c1", "Ki": 6.4}, {"smiles": "Clc1nccnc1OC[C@@H]1C[C@H]2C[C@H]2N1", "Ki": 5110}, {"smiles": "C[C@@]12C[C@@H]1CC(COc1ccc(Cl)nc1)N2", "note": "(stereo not given in full)", "Ki": 6880}, {"smiles": "CN1[C@H](COc2ccc(F)nc2)C[C@H]2C[C@H]21", "Ki": 1.1}, {"smiles": "Cc1nnc(-c2cncc(OC[C@@H]3C[C@H]4C[C@H]4N3)c2)o1", "Ki": 407}, {"smiles": "CC(=O)N1[C@H](COc2ccc(Cl)nc2)C[C@H]2C[C@H]21", "Ki": "> 10000"}, {"smiles": "Clc1cc(OC[C@@H]2C[C@H]3C[C@H]3N2)c(Cl)nc1Cl", "Ki": 265}, {"smiles": "C[C@@]12C[C@@H]1CC(COc1cncc(Cl)c1)N2", "note": "(stereo not given in full)", "Ki": 577}]}]}
